Measurements from PubChem BioAssay AID210 (DTP/NCI, 2004).
Several values for one entry are separate records, joined by “and”; a condition that tells them apart may be missing. Equal values may be shown once. Toxic doses and inconclusive results are not listed.

Test system: CD2F1 mice, ip Colon 26 adenocarcinoma, median survival T/C
Assay: NCI In Vivo Anticancer Drug Screen. Data for tumor model Colon 26 Adenocarcinoma (intraperitoneal) in CD2F1 (CDF1) mice
Details: endpoint: median survival time, higher = longer survival
Experimental: The antitumor activity of compounds was measured in mice bearing transplantable tumors. Survival or tumor size were measured and the results are expressed as the measurement made in the treated group (T) divided by the measurement made in the vehicle treated control group (C). The tumor model used in this assay is Colon 26 Adenocarcinoma (intraperitoneal) in CD2F1 (CDF1) mice

[1] = dose: 64.0 mg/kg/injection, schedule: Q04DX002 (ip), vehicle: Klucel (hydroxypropylcellulose) (HPC)
[2] = dose: 128.0 mg/kg/injection, schedule: Q04DX002 (ip), vehicle: Klucel (hydroxypropylcellulose) (HPC)
[3] = dose: 256.0 mg/kg/injection, schedule: Q04DX002 (ip), vehicle: Klucel (hydroxypropylcellulose) (HPC)
[4] = dose: 25.0 mg/kg/injection, schedule: Q04DX003 (ip), vehicle: saline with Tween-80
[5] = dose: 50.0 mg/kg/injection, schedule: Q04DX003 (ip), vehicle: saline with Tween-80
[6] = dose: 100.0 mg/kg/injection, schedule: Q04DX003 (ip), vehicle: saline with Tween-80

## Nc1ncnc2c1ncn2C1OC(CO)C(O)C1O (configuration not stated)
dose: 50.0 mg/kg/injection, schedule: Q04DX002 (ip), vehicle: suspension in saline
  T/C: 101 % of control
[1]
  T/C: 90 % of control
dose: 100.0 mg/kg/injection, schedule: Q04DX002 (ip), vehicle: suspension in saline
  T/C: 113 % of control
[2]
  T/C: 93 % of control
dose: 200.0 mg/kg/injection, schedule: Q04DX002 (ip), vehicle: suspension in saline
  T/C: 108 % of control
[3]
  T/C: 91 % of control
dose: 400.0 mg/kg/injection, schedule: Q04DX002 (ip), vehicle: suspension in saline
  T/C: 107 % of control
dose: 800.0 mg/kg/injection, schedule: Q04DX002 (ip), vehicle: suspension in saline
  T/C: 122 % of control
dose: 1024.0 mg/kg/injection, schedule: Q04DX002 (ip), vehicle: Klucel (hydroxypropylcellulose) (HPC)
  T/C: 98 % of control

## CCCCNC(C)[C@]1(O)Cc2c(O)c3c(c(O)c2[C@@H](OC2CC(N)C(O)C(C)O2)C1)C(=O)c1c(OC)cccc1C3=O (some centres not stated)
dose: 23.0 mg/kg/injection, schedule: Q07DX002 (iv), vehicle: saline
  T/C: 110 % of control
dose: 35.0 mg/kg/injection, schedule: Q07DX002 (iv), vehicle: saline
  T/C: 122 % of control
dose: 54.0 mg/kg/injection, schedule: Q07DX002 (iv), vehicle: saline
  T/C: 110 % of control
dose: 84.0 mg/kg/injection, schedule: Q07DX002 (iv), vehicle: saline
  T/C: 113 % of control

## COc1cccc2c1C(=O)c1c(O)c3c(c(O)c1C2=O)C[C@@](O)(/C(C)=N\O)C[C@@H]3OC1CC(N)C(O)C(C)O1 (some centres not stated)
dose: 10.0 mg/kg/injection, schedule: Q07DX002 (ip), vehicle: saline
  T/C: 105 % of control
dose: 15.0 mg/kg/injection, schedule: Q07DX002 (ip), vehicle: saline
  T/C: 110 % of control
dose: 23.0 mg/kg/injection, schedule: Q07DX002 (ip), vehicle: saline
  T/C: 115 % of control
dose: 35.0 mg/kg/injection, schedule: Q07DX002 (ip), vehicle: saline
  T/C: 119 % of control

## Nc1ncnc2nc[nH]c12
[1]
  T/C: 97 % of control
[2]
  T/C: 91 % of control
[3]
  T/C: 95 % of control
dose: 512.0 mg/kg/injection, schedule: Q04DX002 (ip), vehicle: Klucel (hydroxypropylcellulose) (HPC)
  T/C: 94 % of control

## CC(=O)OC1C2(CC3N4C(=O)C5(CO)SSC4(CC31O)C(=O)N5C)OC(C)C(C)(C)C2=O (configuration not stated)
dose: 1.25 mg/kg/injection, schedule: Q04DX002 (ip), vehicle: saline
  T/C: 97 % of control
dose: 2.5 mg/kg/injection, schedule: Q04DX002 (ip), vehicle: saline
  T/C: 108 % of control
dose: 5.0 mg/kg/injection, schedule: Q04DX002 (ip), vehicle: saline
  T/C: 87 % of control

## COC1=CC(=O)N(C(=O)C2CSC(C(CO)NC(=O)c3csc(/C=N/O)n3)=N2)C1 (configuration not stated)
dose: 50.0 mg/kg/injection, schedule: Q04DX002 (ip), vehicle: Klucel (hydroxypropylcellulose) (HPC)
  T/C: 93 % of control
dose: 100.0 mg/kg/injection, schedule: Q04DX002 (ip), vehicle: Klucel (hydroxypropylcellulose) (HPC)
  T/C: 105 % of control
dose: 200.0 mg/kg/injection, schedule: Q04DX002 (ip), vehicle: Klucel (hydroxypropylcellulose) (HPC)
  T/C: 101 % of control
dose: 400.0 mg/kg/injection, schedule: Q04DX002 (ip), vehicle: Klucel (hydroxypropylcellulose) (HPC)
  T/C: 105 % of control

## COc1cccc2c1C(=O)c1c(O)c3c(c(O)c1C2=O)C[C@@](O)(C(=O)CO)C[C@@H]3OC1CC(OC(C)=O)C(OC(C)=O)C(C)O1 (some centres not stated)
dose: 58.0 mg/kg/injection, schedule: Q07DX002 (sc), vehicle: distilled water + Tween-80
  T/C: 109 % of control
dose: 101.0 mg/kg/injection, schedule: Q07DX002 (sc), vehicle: distilled water + Tween-80
  T/C: 120 % of control
dose: 300.0 mg/kg/injection, schedule: Q07DX002 (sc), vehicle: distilled water + Tween-80
  T/C: 150 % of control

## CC/C(=C(/CC)c1ccc(O)cc1)c1ccc(O)cc1
[4]
  T/C: 91 % of control
[5]
  T/C: 103 % of control
[6]
  T/C: 89 % of control

## C=C(C)[C@]12CC(C)C34OC(/C=C\C=C\CCCCCCCCC)(O[C@@H]1[C@@H]3[C@@H]1O[C@]1(CO)[C@@H](O)[C@]1(O)C(=O)C(C)=C[C@@H]41)O2 (some centres not stated)
dose: 0.18 mg/kg/injection, schedule: Q04DX003 (ip), vehicle: distilled water + alcohol
  T/C: 102 % of control
dose: 0.37 mg/kg/injection, schedule: Q04DX003 (ip), vehicle: distilled water + alcohol
  T/C: 105 % of control
dose: 0.75 mg/kg/injection, schedule: Q04DX003 (ip), vehicle: distilled water + alcohol
  T/C: 114 % of control

## Cc1[nH]c(=O)[nH]c(=O)c1N(CCF)CCCl
dose: 8.0 mg/kg/injection, schedule: Q04DX002 (ip), vehicle: Klucel (hydroxypropylcellulose) (HPC)
  T/C: 111 % of control and 112 % of control
dose: 16.0 mg/kg/injection, schedule: Q04DX002 (ip), vehicle: Klucel (hydroxypropylcellulose) (HPC)
  T/C: 114 % of control and 121 % of control
dose: 32.0 mg/kg/injection, schedule: Q04DX002 (ip), vehicle: Klucel (hydroxypropylcellulose) (HPC)
  T/C: 122 % of control

## Cc1ncc([N+](=O)[O-])n1CCO
dose: 37.5 mg/kg/injection, schedule: Q04DX003 (ip), vehicle: Klucel (hydroxypropylcellulose) (HPC)
  T/C: 114 % of control
dose: 75.0 mg/kg/injection, schedule: Q04DX003 (ip), vehicle: Klucel (hydroxypropylcellulose) (HPC)
  T/C: 118 % of control
dose: 150.0 mg/kg/injection, schedule: Q04DX003 (ip), vehicle: Klucel (hydroxypropylcellulose) (HPC)
  T/C: 106 % of control
dose: 300.0 mg/kg/injection, schedule: Q04DX003 (ip), vehicle: Klucel (hydroxypropylcellulose) (HPC)
  T/C: 109 % of control
dose: 600.0 mg/kg/injection, schedule: Q04DX003 (ip), vehicle: Klucel (hydroxypropylcellulose) (HPC)
  T/C: 108 % of control

## CCC(C)C(=O)O[C@H]1C(=O)O[C@@H]2C[C@H]3C(C)=CC(=O)[C@@H](O)[C@]3(C)[C@H]3[C@@H](O)[C@H](O)[C@@]4(C)OC[C@]32[C@@H]14 (some centres not stated)
dose: 0.5 mg/kg/injection, schedule: Q04DX002 (ip), vehicle: saline
  T/C: 102 % of control
dose: 1.0 mg/kg/injection, schedule: Q04DX002 (ip), vehicle: saline
  T/C: 98 % of control
dose: 2.0 mg/kg/injection, schedule: Q04DX002 (ip), vehicle: saline
  T/C: 97 % of control

## C[C@]12CCC(=O)C=C1CC[C@@H]1[C@@H]2[C@@H](O)C[C@@]2(C)[C@H]1CC[C@]2(O)C(=O)CO
dose: 40.0 mg/kg/injection, schedule: Q04DX003 (ip), vehicle: Klucel (hydroxypropylcellulose) (HPC)
  T/C: 102 % of control
dose: 80.0 mg/kg/injection, schedule: Q04DX003 (ip), vehicle: Klucel (hydroxypropylcellulose) (HPC)
  T/C: 100 % of control
dose: 160.0 mg/kg/injection, schedule: Q04DX003 (ip), vehicle: Klucel (hydroxypropylcellulose) (HPC)
  T/C: 102 % of control
dose: 320.0 mg/kg/injection, schedule: Q04DX003 (ip), vehicle: Klucel (hydroxypropylcellulose) (HPC)
  T/C: 102 % of control
dose: 640.0 mg/kg/injection, schedule: Q04DX003 (ip), vehicle: Klucel (hydroxypropylcellulose) (HPC)
  T/C: 96 % of control

## CN(Cc1cnc2nc(N)nc(N)c2n1)c1ccc(C(=O)N[C@@H](CCC(=O)O)C(=O)O)cc1
dose: 30.0 mg/kg/injection, schedule: Q07DX003 (ip), vehicle: saline
  T/C: 105 % of control
dose: 44.0 mg/kg/injection, schedule: Q07DX003 (ip), vehicle: saline
  T/C: 88 % of control
dose: 44.0 mg/kg/injection, schedule: Q07DX003 (ip), vehicle: sodium bicarbonate
  T/C: 121 % of control
dose: 63.0 mg/kg/injection, schedule: Q07DX003 (ip), vehicle: saline
  T/C: 93 % of control

## CO[C@H]1C[C@@H]2CC[C@@H](C)[C@@](O)(O2)C(=O)C(=O)N2CCCC[C@H]2C(=O)O[C@H]([C@H](C)C[C@@H]2CC[C@@H](O)[C@H](OC)C2)CC(=O)[C@H](C)C=C(C)[C@@H](O)[C@@H](OC)C(=O)[C@H](C)C[C@H](C)/C=C/C=C/C=C1C
dose: 12.5 mg/kg/injection, schedule: Q04DX003 (ip), vehicle: saline with Tween-80
  T/C: 104 % of control
[4]
  T/C: 118 % of control
[5]
  T/C: 116 % of control
[6]
  T/C: 105 % of control
dose: 200.0 mg/kg/injection, schedule: Q04DX003 (ip), vehicle: saline with Tween-80
  T/C: 96 % of control

## CC1(C)CC23C4COC(=O)C2CCC1C3CC4=O (configuration not stated)
dose: 36.0 mg/kg/injection, schedule: Q04DX003 (ip), vehicle: DMSO
  T/C: 99 % of control
dose: 62.5 mg/kg/injection, schedule: Q04DX002 (ip), vehicle: saline with Tween-80
  T/C: 109 % of control
dose: 72.0 mg/kg/injection, schedule: Q04DX003 (ip), vehicle: DMSO
  T/C: 93 % of control
dose: 125.0 mg/kg/injection, schedule: Q04DX002 (ip), vehicle: saline with Tween-80
  T/C: 91 % of control
dose: 144.0 mg/kg/injection, schedule: Q04DX003 (ip), vehicle: DMSO
  T/C: 94 % of control
